The record followed here is ChEMBL document CHEMBL5465560, “Selectivity Literature for EUbOPEN Chemogenomic Library” (2024).

Test [1] deals with T1, Serine/threonine-protein kinase D3 (Homo sapiens) (UniProt O94806).
T1 sequence (whole entry): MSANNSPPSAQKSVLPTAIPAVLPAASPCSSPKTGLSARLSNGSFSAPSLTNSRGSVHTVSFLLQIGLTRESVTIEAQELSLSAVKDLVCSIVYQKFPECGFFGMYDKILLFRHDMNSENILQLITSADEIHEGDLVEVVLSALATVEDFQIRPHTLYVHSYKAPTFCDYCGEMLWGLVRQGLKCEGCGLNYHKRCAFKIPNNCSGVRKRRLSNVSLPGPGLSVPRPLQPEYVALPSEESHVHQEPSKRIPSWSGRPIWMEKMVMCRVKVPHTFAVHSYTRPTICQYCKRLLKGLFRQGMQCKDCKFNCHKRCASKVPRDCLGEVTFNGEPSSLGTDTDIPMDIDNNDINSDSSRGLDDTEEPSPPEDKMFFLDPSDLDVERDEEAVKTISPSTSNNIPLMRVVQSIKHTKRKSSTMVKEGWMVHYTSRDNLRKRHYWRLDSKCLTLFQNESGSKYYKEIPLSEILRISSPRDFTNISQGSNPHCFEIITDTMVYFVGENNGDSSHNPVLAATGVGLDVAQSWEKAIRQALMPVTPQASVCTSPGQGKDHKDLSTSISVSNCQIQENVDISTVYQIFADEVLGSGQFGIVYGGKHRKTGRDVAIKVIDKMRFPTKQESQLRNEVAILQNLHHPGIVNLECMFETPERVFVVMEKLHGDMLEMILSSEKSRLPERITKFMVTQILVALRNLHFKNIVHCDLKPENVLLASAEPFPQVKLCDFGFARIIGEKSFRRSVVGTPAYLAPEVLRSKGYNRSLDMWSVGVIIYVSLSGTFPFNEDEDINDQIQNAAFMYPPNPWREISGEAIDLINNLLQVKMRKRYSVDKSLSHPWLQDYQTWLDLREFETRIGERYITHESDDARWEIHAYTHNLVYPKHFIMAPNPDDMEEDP
Put plainly: Selectivity interaction (ActivX KiNativ screen (kinase selectivity in THP-1 cell lysates)) EUB0000639a PRKD3. The test is classed as subcellular. The conditions noted are these: lysate, at 5 µM.

For test [2], the target named is T2, Casein kinase I isoform alpha-like (Homo sapiens) (UniProt Q8N752).
T2 sequence (whole entry): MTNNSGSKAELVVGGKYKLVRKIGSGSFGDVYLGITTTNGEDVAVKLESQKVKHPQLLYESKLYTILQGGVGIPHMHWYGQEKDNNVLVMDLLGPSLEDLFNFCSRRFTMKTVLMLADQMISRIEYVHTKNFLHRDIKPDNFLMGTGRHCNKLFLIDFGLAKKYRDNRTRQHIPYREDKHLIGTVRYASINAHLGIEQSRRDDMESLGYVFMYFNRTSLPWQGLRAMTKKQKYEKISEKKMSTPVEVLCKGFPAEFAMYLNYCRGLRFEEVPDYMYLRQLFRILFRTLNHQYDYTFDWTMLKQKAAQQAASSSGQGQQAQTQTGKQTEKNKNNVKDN
Kind of test: Selectivity interaction (KinomeScan (DiscoverX)) EUB0000045b CSNK1A1L.

In test [3] the target is T3, Mitogen-activated protein kinase kinase kinase 2 (Homo sapiens) (UniProt Q9Y2U5).
T3 sequence (whole entry): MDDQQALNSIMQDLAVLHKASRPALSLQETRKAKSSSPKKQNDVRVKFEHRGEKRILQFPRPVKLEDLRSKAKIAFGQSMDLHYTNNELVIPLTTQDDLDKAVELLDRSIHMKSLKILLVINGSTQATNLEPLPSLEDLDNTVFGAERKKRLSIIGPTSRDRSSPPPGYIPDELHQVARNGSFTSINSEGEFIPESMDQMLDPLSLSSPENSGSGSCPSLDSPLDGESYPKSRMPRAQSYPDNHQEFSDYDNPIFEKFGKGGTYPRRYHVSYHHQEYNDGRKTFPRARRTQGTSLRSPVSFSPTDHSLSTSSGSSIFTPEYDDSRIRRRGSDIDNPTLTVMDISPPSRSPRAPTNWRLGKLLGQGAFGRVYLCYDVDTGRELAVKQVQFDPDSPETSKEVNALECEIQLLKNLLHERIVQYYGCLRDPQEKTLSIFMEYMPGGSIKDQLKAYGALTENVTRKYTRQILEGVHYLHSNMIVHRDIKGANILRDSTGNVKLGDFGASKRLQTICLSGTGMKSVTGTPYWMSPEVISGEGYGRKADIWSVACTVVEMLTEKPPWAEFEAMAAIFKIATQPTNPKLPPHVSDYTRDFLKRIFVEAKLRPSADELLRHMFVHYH
Kind of test: Selectivity interaction (KinomeScan (DiscoverX)) EUB0001079a MAP3K2. The conditions noted are these: at 1 µM.

Take `CC[C@@H]1[C@H](F)C(=O)N[C@@H]1COc1nccc2cc(C(N)=O)c(OC)cc12` [ZIMLOVISERTIB]: in test [1], the % of inhibition is -5.2%.

With `C=CC(=O)Nc1cc(-n2c(=O)ccc3cnc4ccc(-c5ccc(NS(C)(=O)=O)cc5)cc4c32)ccc1C`, the % of control in test [2] (at 1 µM) and in test [2] (at 10 µM) was 100% throughout. Take `Nc1cnc(N2CCc3cc(S(=O)(=O)Nc4c(F)cc(Cl)cc4F)cc(N4CCCC4=O)c32)nc1` [TP-020n]: the % of control in test [3] worked out at 100%.
